Laboratory results as given in patent publication US12492197B2, “3,5-disubstituted pyrazole compounds as kinase inhibitors and uses thereof” (IMPACT THERAPEUTICS (SHANGHAI), INC, priority 2019, dated 2025).

Legend:
CHK1 kinase = molecular target: T1, CHK1 kinase (Homo sapiens, UniProt O14757); assay: CHK1 kinase inhibition, ADP-Glo kinase assay; type: biochemical; settings: ATP 10 μM, CHK1 1 ng/well; for inhibition at 0.01 µM: compound concentration 10 nM, read-out: Inh % (inhibitory effect on CHK1 kinase activity); for IC50: read-out: IC50 (inhibitory effect on CHK1 kinase activity)
T1 construct: purchased Promega V1941
T1 sequence (O14757 1-476): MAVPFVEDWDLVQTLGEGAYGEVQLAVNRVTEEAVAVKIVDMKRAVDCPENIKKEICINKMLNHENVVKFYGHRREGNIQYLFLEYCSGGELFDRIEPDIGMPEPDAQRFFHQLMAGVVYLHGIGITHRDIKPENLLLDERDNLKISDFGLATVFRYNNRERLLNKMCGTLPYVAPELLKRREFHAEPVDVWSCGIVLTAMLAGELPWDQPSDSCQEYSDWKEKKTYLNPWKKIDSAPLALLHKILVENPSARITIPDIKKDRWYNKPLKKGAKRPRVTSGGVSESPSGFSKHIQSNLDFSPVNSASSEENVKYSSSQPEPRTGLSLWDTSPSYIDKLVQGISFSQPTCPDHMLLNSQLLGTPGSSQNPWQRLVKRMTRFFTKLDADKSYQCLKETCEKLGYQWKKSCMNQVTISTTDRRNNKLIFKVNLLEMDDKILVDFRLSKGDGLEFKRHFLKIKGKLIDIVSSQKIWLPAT

[1] = tested on: human breast cancer cell HCC1806; assay: Proliferation of HCC1806 cells, MTT assay; type: cell-based; settings: HCC1806, 72 h, 3 days treatment, read-out: IC50 (inhibition of proliferation of HCC1806)
[2] = tested on: human pancreatic cancer cell SW1990; assay: Proliferation of SW1990 cells, MTT assay; type: cell-based; settings: SW1990, 120 h, 5 days treatment, read-out: IC50 (inhibition of proliferation of SW1990)
Experimental: Newly revived SW1990 cells (purchased from Shanghai Fuheng Biology) were cultured and passaged for at least three generations before use. Cells were used at about 90% confluency for experiments. Cells were digested with trypsinase and centrifuged at 800 rpm for 5 minutes. The cell pellets were resuspended in fresh DMEM medium and cells were counted. Cells were seeded on 96-well cell culture plates at 5000 cells/well and incubated overnight at 37° C., 5% CO2. The stock solutions of the test substances (including the test compounds and the reference compound) were serially diluted to 8 concentrations with DMSO at a ratio of 1:3. 5 μL of each serially diluted solutions was added to 120 μL of medium (diluted by 25 times) and mixed by shaking. […] The cell culture plates were returned to incubator at 37° C. and 5% CO2 for 5 days. At the end of the treatment the cell viability was determined by MTT colorimetric assay. Cell culture medium in each well was replaced by 100 μL/well of serum-free fresh medium containing MTT (0.5 mg/mL), and the culture was continued for additional 4 hours. Medium was then discarded and 100 μL/well of DMSO was added.
Data was analyzed by GraphPad Prism 6.0. The inhibitory effects of compounds on cell proliferation were plotted based on cell viability vs. the logarithm of compound concentration. Cell viability %=(ODcompound−ODbackground)/(ODDMSO−ODbackground)×100.

[3] = tested on: human colon cancer cell LoVo; assay: Proliferation of LoVo cells, MTT assay; type: cell-based; settings: 96 h, 4 days treatment, read-out: IC50 (inhibition of proliferation of LoVo)

inhibition at 0.01 µM (CHK1 kinase) [%]	IC50 [1] [nM]	IC50 [2] [nM]	IC50 (CHK1 kinase) [nM]	IC50 [3] [nM]	Structure (SMILES)
79	94.2	50.7	–	–	COc1cccc(OC[C@H]2CNCCO2)c1-c1cc(Nc2cnc(C#N)cn2)n[nH]1 [Example 3, (R)-5-((5-(2-methoxy-6-(morpholin-2-ylmethoxy)phenyl)-1H-pyrazol-3-yl)amino)pyrazine-2-carbonitrile]
82	139	123	–	–	COc1cccc(OC[C@@H]2CN(C)CCO2)c1-c1cc(Nc2cnc(C#N)cn2)n[nH]1 [Example 4, (S)-5-((5-(2-methoxy-6-((4-methylmorpholin-2-yl)methoxy)phenyl)-1H-pyrazol-3-yl)amino)pyrazine-2-carbonitrile]
89	31.7	19.1	–	–	COc1cccc(OC2CCNCC2)c1-c1cc(Nc2cnc(C#N)cn2)n[nH]1 [Example 30, 5-((5-(2-methoxy-6-(piperidin-4-yloxy)phenyl)-1H-pyrazol-3-yl)amino)pyrazine-2-carbonitrile]
93	11.8	11.8	–	–	COc1cc(Cl)cc(OC[C@@H]2CNCCO2)c1-c1cc(Nc2cnc(C#N)cn2)n[nH]1 [Example 16, (S)-5-((5-(4-chloro-2-methoxy-6-(morpholin-2-ylmethoxy)phenyl)-1H-pyrazol-3-yl)amino)pyrazine-2-carbonitrile]
92	1.2	1.2	0.97	4.4	COc1cccc(OC[C@H]2CCCNC2)c1-c1cc(Nc2cnc(C#N)cn2)n[nH]1 [Example 9, (S)-5-((5-(2-methoxy-6-(piperidin-3-ylmethoxy)phenyl)-1H-pyrazol-3-yl)amino)pyrazine-2-carbonitrile]
95	7.4	6.3	0.84	15.5	COc1cccc(OC[C@@H]2CNCCO2)c1-c1cc(Nc2cnc(C#N)cn2)n[nH]1 [Example 1, (S)-5-((5-(2-methoxy-6-(morpholin-2-ylmethoxy)phenyl)-1H-pyrazol-3-yl)amino)pyrazine-2-carbonitrile]
–	13.9	10.1	0.72	–	COc1cccc(OCC2CCNCC2)c1-c1cc(Nc2cnc(C#N)cn2)n[nH]1 [Example 12, 5-((5-(2-methoxy-6-(piperidin-4-ylmethoxy)phenyl)-1H-pyrazol-3-yl)amino)pyrazine-2-carbonitrile]
94	12	6.1	0.69	19.2	COc1cc(F)cc(OC[C@@H]2CNCCO2)c1-c1cc(Nc2cnc(C#N)cn2)n[nH]1 [Example 14, (S)-5-((5-(4-fluoro-2-methoxy-6-(morpholin-2-ylmethoxy)phenyl)-1H-pyrazol-3-yl)amino)pyrazine-2-carbonitrile]
79	39.2	19.6	–	–	COc1cc(Br)cc(OC[C@@H]2CNCCO2)c1-c1cc(Nc2cnc(C#N)cn2)n[nH]1 [Example 18, (S)-5-((5-(4-bromo-2-methoxy-6-(morpholin-2-ylmethoxy)phenyl)-1H-pyrazol-3-yl)amino)pyrazine-2-carbonitrile]
40	> 1000	809	–	–	COc1c(Cl)ccc(OC[C@@H]2CNCCO2)c1-c1cc(Nc2cnc(C#N)cn2)n[nH]1 [Example 15, (S)-5-((5-(3-chloro-2-methoxy-6-(morpholin-2-ylmethoxy)phenyl)-1H-pyrazol-3-yl)amino)pyrazine-2-carbonitrile]
50	394	287	–	–	COc1cccc(OC[C@@H]2CNCCO2)c1-c1cc(Nc2cnc(C(F)(F)F)cn2)n[nH]1 [Example 5, (S)—N-(5-(2-methoxy-6-(morpholin-2-ylmethoxy)phenyl)-1H-pyrazol-3-yl)-5-(trifluoromethyl)pyrazin-2-amine]
–	2.1	1.9	0.45	–	COc1cccc(OC[C@H]2CCNC2)c1-c1cc(Nc2cnc(C#N)cn2)n[nH]1 [Example 13, (S)-5-((5-(2-methoxy-6-(pyrrolidin-3-ylmethoxy)phenyl)-1H-pyrazol-3-yl)amino)pyrazine-2-carbonitrile]
